Values quoted from earlier work as cited in patent US20140187635A1, “DICLOFENAC COMPOSITIONS” (THEMIS MEDICARE LIMITED, priority 2012, published 2014).
Read-outs that look alike come from different tables or passages of the source.

Columns and labels:
[1] = test system: eyes: rabbit
[2] = test system: rat; settings: in vivo, iv
[3] = test system: mouse
[4] = test system: Dog; settings: intravenous
[5] = test system: rabbit; settings: intravenous

For `CCOCCOCCO` [Transcutol, diethylene glycol monoethyl ether], the “eyes: rabbit” value [1] is listed as 500 mg, the LD50 [2] is listed as 4000 mg/kg and the LD50 ([3]; in vivo, ip) is listed as 2300 mg/kg. For the same compound, the LD50 ([3]; intravenous) was 4300 µL/kg, the “LD50 (subcutaneous: mouse)” value ([3]; subcutaneous) was 5500 µL/kg and the LD50 [4] was 3 mL/kg. For the same compound, the LD50 [5] was 2500 µL/kg.
